Usually EC50 stands for the concentration needed to bring the measured effect to its halfway point. A low value points to greater potency. For orientation: IC50 means the concentration needed to halve the response being measured. By LD50 is commonly meant the dose expected to kill half of the subjects tested.

In patent publication US5914324A, “6-Hydroxy and 6-oxo-androstane derivatives active on the cardiovascular system and pharmaceutical compositions containing same” (Sigma-Tau Industrie Farmaceutiche Riunite S.p.A., priority 1996, dated 1999) one finds EC50, IC50 and LD50 data, which are given here for nine compounds.

Data set [1] has as its target T1, Na+,K+-ATPase (Canis lupus familiaris, UniProt P50997).
T1 construct: Na^+,K^+ -ATPase receptor purified according to Jorghensen; from tissue
The data set is described as follows: displacement of the specific 3H-ouabain binding from the Na+,K+-ATPase receptor. Particulars: displacement of specific 3H-ouabain binding, purified enzyme. From the text: (§1) To test the affinity for the receptor site of the Na^+,K^+ -ATPase and the inhibitory activity on the enzyme, the following tests were used: a) displacement of the specific 3H-ouabain binding from the Na^+,K^+ -ATPase receptor purified according to Jorghensen (Jorghensen P., BBA.

In data set [2] the target is T1, Na+,K+-ATPase. Briefly: inhibition of the activity of the purified Na+,K+-ATPase (hydrolysis of 32P-ATP). Type of data set: biochemical. Conditions: purified enzyme.
Text: as §1

Another data set deals with guinea pig left atrium. The data set is described as follows: inotropic activity in vitro, electrically paced guinea pig left atrium. Conditions: Cavia porcellus.
Data set [3] in a line: acute toxicity mouse oral. Particulars: in vivo. From the text:
Finally the compounds of the invention have a low toxicity when compared with standard cardiotonic steroids.

Structures are written as SMILES. Where a name gives a salt, the structure may show the parent alone.

In the case of `C[C@]12CCC(=NOCCN)C[C@@H]1C(=O)C[C@@H]1[C@@H]2CC[C@]2(C)C(=O)CC[C@@H]12` [I-h, (E,Z)-3-(2-aminoethoxyimino)-5α-androstan-6,17-dione emioxalate], the results for the EC50 on Na+,K+-ATPase [1] and in the data set on guinea pig left atrium were 0.02 µM and 0.6 µM, respectively. This compound also returned a concentration for half-maximal inhibition (IC50) on Na+,K+-ATPase [2] of 0.3 µM. The compound also returned an LD50 in data set [3] of 520 mg/kg.
Turning to `CN(C)CCCO[C@H]1CC[C@@]2(C)[C@H](C1)C(=O)C[C@@H]1[C@@H]2CC[C@]2(C)C(=O)CC[C@@H]12` [I-m, 3β-(3-N,N-dimethylaminopropoxy)-5α-androstan-6,17-dione], the EC50 on Na+,K+-ATPase [1] came out at 1.3 µM; in the data set with guinea pig left atrium, 20 µM. The midpoint of inhibition at Na+,K+-ATPase [2], the IC50, lay at 50 µM. In addition, the 50% lethal dose (LD50) in data set [3] was greater than 1000 mg/kg.
The corresponding values for `C[C@]12CCC(=NOCCN)C[C@@H]1[C@@H](O)C[C@@H]1[C@@H]2CC[C@]2(C)[C@@H](O)CC[C@@H]12` [I-a, (E,Z)-3-(2-aminoethoxyimino)-5α-androstan-6α,17β-diol oxalate] are 0.1 µM, 2.5 µM, 1.6 µM and greater than 600 mg/kg.
For the compound `CN(C)CCO/N=C/C=C1\CC[C@@]2(C)[C@H](C1)C(=O)C[C@@H]1[C@@H]2CC[C@]2(C)C(=O)CC[C@@H]12` [I-k, (E)-3-[3-(2-N,N-dimethylaminoethoxyimino)(E)-propen-1-yl)-5α-androstan-6,17-dione oxalate], the EC50 on Na+,K+-ATPase [1] turned out to be 0.32 µM; in the data set on guinea pig left atrium, 12.6 µM. The compound also had an IC50 against Na+,K+-ATPase [2] of 3.2 µM. This compound also yielded an LD50 in data set [3] greater than 600 mg/kg.
The corresponding values for `C[C@]12CC[C@H](/C=N\OCCN)C[C@@H]1[C@@H](O)C[C@@H]1[C@@H]2CC[C@]2(C)[C@@H](O)CC[C@@H]12.O=C(O)C(=O)O` [I-d, (Z)-3β-(2-aminoethoxyiminomethyl)-5α-androstan-6α,17β-diol oxalate] are 0.13 µM, 10.5 µM, 1.6 µM and greater than 600 mg/kg.
In the case of `CN(C)CCO/N=C1/CC[C@@]2(C)[C@H](C1)C(=O)C[C@@H]1[C@@H]2CC[C@]2(C)C(=O)CC[C@@H]12` [I-i, (Z)-3-(2-N,N-dimethylaminoethoxyimino)-5α-androstan-6,17-dione], the EC50 on Na+,K+-ATPase [1] was 0.5 µM; in the data set on guinea pig left atrium, 7.1 µM. The compound also yielded an IC50 against Na+,K+-ATPase [2] of 12 µM. The LD50 in data set [3] is greater than 1000 mg/kg.
`C[C@H]1O[C@@H](O[C@H]2[C@@H](O)C[C@H](O[C@H]3[C@@H](O)C[C@H](O[C@H]4CC[C@@]5(C)[C@H](CC[C@@H]6[C@@H]5C[C@@H](O)[C@]5(C)[C@@H](C7=CC(=O)OC7)CC[C@]65O)C4)O[C@@H]3C)O[C@@H]2C)C[C@H](O)[C@@H]1O` [Digoxin, reference compound] returned an EC50 in the data set with guinea pig left atrium of 0.5 µM. In data set [3], the LD50 worked out at 18 mg/kg.
Take `CN(C)CCO/N=C\[C@H]1CC[C@@]2(C)[C@H](C1)[C@@H](O)C[C@@H]1[C@@H]2CC[C@]2(C)[C@@H](O)CC[C@@H]12` [I-e, (Z)-3β-(2-N,N-dimethylaminoethoxyiminomethyl)-5α-androstan-6α,17β-diol oxalate]: the EC50 at Na+,K+-ATPase [1] was 0.16 µM; in the data set with guinea pig left atrium it was 5.6 µM. The midpoint of inhibition against Na+,K+-ATPase [2], the IC50, lay at 2 µM. In data set [3], the LD50 was greater than 600 mg/kg.
`CN(C)CCO/N=C/C=C1\CC[C@@]2(C)[C@H](C1)[C@@H](O)C[C@@H]1[C@@H]2CC[C@]2(C)[C@@H](O)CC[C@@H]12` [I-f, (E)-3-[3-(2-N,N-dimethylaminoethoxyimino)(E)-propen-1-yl)-5α-androstan-6α,17β-diol]: the EC50 at Na+,K+-ATPase [1] turned out to be 0.1 µM; with guinea pig left atrium it was 0.8 µM. On Na+,K+-ATPase [2], half-maximal inhibition (IC50) required 1 µM. The same compound displayed an LD50 in data set [3] of 560 mg/kg.
